Holding throughout (type): in vivo
Test [1] relates to giant foxtail (Setaria faberii). The experiment in a line: Test A preemergence. The settings on record: Setaria faberi, pre-emergence, 240 h; for pest or weed control at 125 g/ha: 125 g ai/ha, visual rating after approx. 10 d, 0 to 100 scale where 0 is no effect and 100 is complete control; for pest or weed control at 500 g/ha: 500 g ai/ha. The procedure, abridged:
(§1)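 Visual injury scores from 0, no effect, to 100, complete control, were assigned versus untreated controls roughly 10 d after treatment in the greenhouse. Test chemicals, formulated with surfactant in a non-phytotoxic solvent, were applied to planted seeds as a preemergence soil spray or postemergence to one- to two-leaf plants 2 to 10 cm tall, in loam–sand soil.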

For test [2], the system named is ragweed (common ragweed, Ambrosia elatior). Nature of the test: Test A preemergence. The settings on record: Ambrosia artemisiifolia, pre-emergence, 240 h; for pest or weed control at 125 g/ha: 125 g ai/ha, visual rating after approx. 10 d, 0 to 100 scale where 0 is no effect and 100 is complete control; for pest or weed control at 500 g/ha: 500 g ai/ha. The procedure, abridged: as §1

Test [3] has as its system barnyardgrass (Echinochloa crus-galli). Nature of the test: Test A preemergence. As to conditions: Echinochloa crus-galli, pre-emergence, 240 h; for pest or weed control at 125 g/ha: 125 g ai/ha, visual rating after approx. 10 d, 0 to 100 scale where 0 is no effect and 100 is complete control; for pest or weed control at 500 g/ha: 500 g ai/ha. The procedure, abridged: as §1

The subject of test [4] is ryegrass, Italian (Italian ryegrass, Lolium multiflorum). The experiment in a line: Test A preemergence. The settings on record: Lolium multiflorum, pre-emergence, 240 h; for pest or weed control at 125 g/ha: 125 g ai/ha, visual rating after approx. 10 d, 0 to 100 scale where 0 is no effect and 100 is complete control; for pest or weed control at 500 g/ha: 500 g ai/ha. The procedure, abridged: as §1

The subject of test [5] is Kochia (Kochia scoparia). The experiment in a line: Test A preemergence. As to conditions: Bassia scoparia, pre-emergence, 240 h; for pest or weed control at 125 g/ha: 125 g ai/ha, visual rating after approx. 10 d, 0 to 100 scale where 0 is no effect and 100 is complete control; for pest or weed control at 500 g/ha: 500 g ai/ha. A digest of the protocol: as §1
The subject of test [6] is pigweed (Amaranthus retroflexus). The experiment in a line: Test A preemergence. As to conditions: Amaranthus retroflexus, pre-emergence, 240 h; for pest or weed control at 125 g/ha: 125 g ai/ha, visual rating after approx. 10 d, 0 to 100 scale where 0 is no effect and 100 is complete control; for pest or weed control at 500 g/ha: 500 g ai/ha.
The test system of test [7] is giant foxtail (Setaria faberii). The experiment in a line: Test A postemergence. As to conditions: Setaria faberi, post-emergence, 240 h, 125 g ai/ha, postemergence; visual injury after approximately 10 d; 0 to 100 scale (0 no effect, 100 complete control); read-out: Plant response rating, Foxtail, Giant. A digest of the protocol: as §1
In test [8] the test system is ragweed (common ragweed, Ambrosia elatior). Nature of the test: Test A postemergence. The settings on record: Ambrosia artemisiifolia, post-emergence, 240 h, 125 g ai/ha, postemergence; visual injury after approximately 10 d; 0 to 100 scale (0 no effect, 100 complete control); read-out: Plant response rating, Ragweed. A digest of the protocol: as §1
Test [9] relates to barnyardgrass (Echinochloa crus-galli). Nature of the test: Test A postemergence. The settings on record: Echinochloa crus-galli, post-emergence, 240 h, 125 g ai/ha, postemergence; visual injury after approximately 10 d; 0 to 100 scale (0 no effect, 100 complete control); read-out: Plant response rating, Barnyardgrass. A digest of the protocol: as §1
Test [10] concerns Galium (catchweed bedstraw, Galium aparine). The experiment in a line: Test A postemergence. As to conditions: Galium, post-emergence, 240 h, 125 g ai/ha, postemergence; visual injury after approximately 10 d; 0 to 100 scale (0 no effect, 100 complete control); read-out: Plant response rating, Galium. A digest of the protocol: as §1
In a further test the test system is corn (Zea mays). Nature of the test: Test A postemergence. As to conditions: Zea mays, post-emergence, 240 h, 125 g ai/ha, postemergence; visual injury after approximately 10 d; 0 to 100 scale (0 no effect, 100 complete control). A digest of the protocol:
as §1

Test [11] deals with ryegrass, Italian (Italian ryegrass, Lolium multiflorum). The experiment in a line: Test A postemergence. As to conditions: Lolium multiflorum, post-emergence, 240 h, 125 g ai/ha, postemergence; visual injury after approximately 10 d; 0 to 100 scale (0 no effect, 100 complete control); read-out: Plant response rating, Ryegrass, Italian. A digest of the protocol:
as §1

For test [12], the system named is Kochia (Kochia scoparia). The experiment in a line: Test A postemergence. As to conditions: Bassia scoparia, post-emergence, 240 h, 125 g ai/ha, postemergence; visual injury after approximately 10 d; 0 to 100 scale (0 no effect, 100 complete control); read-out: Plant response rating, Kochia. The procedure, abridged: as §1
Test [13] deals with wheat (Triticum aestivum). The experiment in a line: Test A postemergence. The settings on record: Triticum aestivum, post-emergence, 240 h, 125 g ai/ha, postemergence; visual injury after approximately 10 d; 0 to 100 scale (0 no effect, 100 complete control); read-out: Plant response rating, Wheat. A digest of the protocol:
as §1

Test [14] relates to pigweed (Amaranthus retroflexus). Nature of the test: Test A postemergence. The settings on record: Amaranthus retroflexus, post-emergence, 240 h, 125 g ai/ha, postemergence; visual injury after approximately 10 d; 0 to 100 scale (0 no effect, 100 complete control); read-out: Plant response rating, Pigweed. A digest of the protocol:
as §1

Where [15] appears, read: preemergence, read-out: Plant response rating, Foxtail, Giant.
Setting [16] is: preemergence, read-out: Plant response rating, Ragweed.
Where [17] appears, read: preemergence, read-out: Plant response rating, Barnyardgrass.
Where [18] appears, read: preemergence, read-out: Plant response rating, Ryegrass, Italian.
[19] abbreviates: preemergence, read-out: Plant response rating, Kochia.
Where [20] appears, read: preemergence, read-out: Plant response rating, Pigweed.
The mark [21] stands for this setting: preemergence, 0 to 100 scale, 0 = no effect, 100 = complete control, read-out: Plant response rating, Foxtail, Giant.
Where [22] appears, read: preemergence, 0 to 100 scale, 0 = no effect, 100 = complete control, read-out: Plant response rating, Ragweed.
Setting [23] is: preemergence, 0 to 100 scale, 0 = no effect, 100 = complete control, read-out: Plant response rating, Barnyardgrass.
The mark [24] stands for this setting: preemergence, 0 to 100 scale, 0 = no effect, 100 = complete control, read-out: Plant response rating, Ryegrass, Italian.
The mark [25] stands for this setting: preemergence, 0 to 100 scale, 0 = no effect, 100 = complete control, read-out: Plant response rating, Kochia.
Where [26] appears, read: preemergence, 0 to 100 scale, 0 = no effect, 100 = complete control, read-out: Plant response rating, Pigweed.

Molecules are shown by their SMILES. Like-named read-outs stand apart in the source and are kept apart here.

On to `CN1C[C@H](c2cc(F)cc(F)c2)[C@@H](C(=O)Nc2ncccc2F)C1=O` [Compound 783], for which the pest or weed control at 125 g/ha in [1] (setting [15]) amounted to 0%; in test [2] (setting [16]) it was 0%; in test [3] (setting [17]) it was 0%; in test [4] (setting [18]), 0%; with Kochia (Kochia scoparia) [5] (setting [19]), 30%; in test [6] (setting [20]), 0%. In addition, the pest or weed control at 125 g/ha (in [7]; in [8]; in test [9]; in test [10]; in test [11]; in the test with Kochia (Kochia scoparia) [12]) was 0% in each case. Moreover, in test [14], the pest or weed control at 125 g/ha was 0%. In addition, the pest or weed control at 500 g/ha in [1] (Preemergence, visual injury vs untreated controls after approximately 10 d, read-out: Foxtail, Giant plant response rating (0 to 100 scale where 0 is no effect and 100 is complete control)) amounted to 80%; in [2] (Preemergence, visual injury vs untreated controls after approximately 10 d, read-out: Ragweed plant response rating (0 to 100 scale where 0 is no effect and 100 is complete control)), 0%; in [3] (Preemergence, visual injury vs untreated controls after approximately 10 d, read-out: Barnyardgrass plant response rating (0 to 100 scale where 0 is no effect and 100 is complete control)), 70%; in [4] (Preemergence, visual injury vs untreated controls after approximately 10 d, read-out: Ryegrass, Italian plant response rating (0 to 100 scale where 0 is no effect and 100 is complete control)), 0%; with Kochia (Kochia scoparia) [5] (Preemergence, visual injury vs untreated controls after approximately 10 d, read-out: Kochia plant response rating (0 to 100 scale where 0 is no effect and 100 is complete control)), 50%; in test [6] (Preemergence, visual injury vs untreated controls after approximately 10 d, read-out: Pigweed plant response rating (0 to 100 scale where 0 is no effect and 100 is complete control)), 0%. In the test on corn (Zea mays), this compound had a Corn plant response rating (crop injury, 0 = no effect, 100 = complete kill) at 125 g/ha of 0%. For the same compound, the plant injury at 125 g/ha in test [13] was 0%.
In the case of `CN1C[C@H](c2ccc3c(c2)CCC3)[C@@H](C(=O)Nc2ccccc2S(C)(=O)=O)C1=O` [Compound 744], the pest or weed control at 125 g/ha in test [1] (setting [15]) is 90%; in [2] (setting [16]), 0%; in test [3] (setting [17]), 20%; in test [4] (setting [18]), 0%; in the test on Kochia (Kochia scoparia) [5] (setting [19]), 60%; in test [6] (setting [20]) it was 20%. Moreover, the pest or weed control at 125 g/ha in test [7] amounted to 80%; in test [8], 20%; in [9] it was 60%; in [10], 30%; in test [11], 30%; in the test on Kochia (Kochia scoparia) [12], 30%. In addition, in test [14], the pest or weed control at 125 g/ha turned out to be 0%. The pest or weed control at 500 g/ha in test [1] (setting [21]) worked out at 90%; in [2] (setting [22]), 50%; in [3] (setting [23]), 90%; in [4] (setting [24]), 80%; in the test on Kochia (Kochia scoparia) [5] (setting [25]) it was 90%; in [6] (setting [26]), 50%. The compound further yielded a Corn plant response rating (crop injury, 0 = no effect, 100 = complete kill) at 125 g/ha in the test on corn (Zea mays) of 40%. For the same compound, the plant injury at 125 g/ha in test [13] came out at 50%.
Regarding `CN1C[C@H](c2ccc3c(c2)CCC3)[C@@H](C(=O)Nc2ccccc2F)C1=O` [Compound 742], the pest or weed control at 125 g/ha in test [1] (setting [15]) came out at 90%; in [2] (setting [16]), 20%; in test [3] (setting [17]) it was 90%; in test [4] (setting [18]), 50%; in the test with Kochia (Kochia scoparia) [5] (setting [19]), 60%; in test [6] (setting [20]), 20%. In addition, the pest or weed control at 125 g/ha stood at 90% in test [7]; 20% in [8]; 90% in [9]; 50% in test [10]; 60% in [11]; 30% in the test on Kochia (Kochia scoparia) [12]. In test [14], the pest or weed control at 125 g/ha worked out at 0%. The pest or weed control at 500 g/ha in test [1] (setting [21]) was 90%; in test [2] (setting [22]), 80%; in test [3] (setting [23]), 90%; in test [4] (setting [24]), 90%; in the test on Kochia (Kochia scoparia) [5] (setting [25]) it was 90%; in test [6] (setting [26]), 50%. Also, the Corn plant response rating (crop injury, 0 = no effect, 100 = complete kill) at 125 g/ha with corn (Zea mays) is 70%. In addition, in [13], the plant injury at 125 g/ha came out at 60%.

The values above are taken from patent publication US12077503B2, “Substituted cyclic amides and their use as herbicides” (FMC CORPORATION, priority 2015, dated 2024).
